In brackets after ≈: the same amount, converted by molar mass. Like-named read-outs stand apart in the source and are kept apart here. Marks after values point to notes of the source that are not given here.
Tests used:
A549 [1] = assay: DNA damage, comet assay, A549; assay type: cell-based, human
[2] = system: hepatocellular carcinoma cell line (HePG2); assay: cells; assay type: cell-based; settings: Homo sapiens, 48 h
[3] = system: osteosarcoma cell line (HOS); assay: cells; assay type: cell-based; settings: Homo sapiens, 48 h, 100 μg/mL
Bacillus mycoides [4] = assay: microbe, parasite or virus in culture; assay type: cell-based
EGFR = assay: qRT-PCR, EGFR in A549 cells; assay type: cell-based, human; settings: versus negative samples
prostate cancer (PC3) = assay: cells; assay type: cell-based; settings: Homo sapiens, 48 h
Candida albicans [5] = assay: MIC by serial dilution (agar wells), C. albicans; assay type: cell-based
Bacillus mycoides [6] = assay: microbe, parasite or virus in culture; assay type: cell-based; remark: listed apart in the source
[7] = system: human lung carcinoma (A549); assay: cells; assay type: cell-based
Candida albicans [8] = assay: Agar well diffusion, C. albicans; assay type: cell-based
[9] = system: pancreatic cancer cell line (PACA2); assay: cells; assay type: cell-based; settings: Homo sapiens, PaCa-2, 48 h
Escherichia coli [10] = assay: MIC by serial dilution (agar wells), E. coli; assay type: cell-based
Escherichia coli [11] = assay: Agar well diffusion, E. coli; assay type: cell-based; settings: Escherichia coli, read-out: Inhibition zones diameter
skin cancer (A431) = assay: cells; assay type: cell-based; settings: Homo sapiens, A-431, 100 μg/mL, 48 h
A549 [12] = assay: DNA fragmentation assay, A549; assay type: cell-based, human
in vitro = assay type: cell-based; settings: human, BJ1 normal skin fibroblast cells, 100 μg/mL
colon cancer (HCT116) = assay: cells; assay type: cell-based; settings: Homo sapiens
KRAS = assay: qRT-PCR, KRAS in A549 cells; assay type: cell-based, human; settings: versus negative samples
[13] = read-out: Minimum inhibition concentration (MIC)
[14] = 0.00488 mg/mL, 150 µL in DMSO, 15 mm agar well
[15] = 0.00975 mg/mL, 150 µL in DMSO, 15 mm agar well
[16] = 0.0195 mg/mL, 150 µL in DMSO, 15 mm agar well
[17] = 0.0391 mg/mL, 150 µL in DMSO, 15 mm agar well
[18] = 0.0781 mg/mL, 150 µL in DMSO, 15 mm agar well
[19] = 0.1563 mg/mL, 150 µL in DMSO, 15 mm agar well
[20] = 0.3125 mg/mL, 150 µL in DMSO, 15 mm agar well
[21] = 0.625 mg/mL, 150 µL in DMSO, 15 mm agar well
[22] = 1.25 mg/mL, 150 µL in DMSO, 15 mm agar well
[23] = 2.50 mg/mL, 150 µL in DMSO, 15 mm agar well
[24] = 5.00 mg/mL, 150 µL in DMSO, 15 mm agar well
[25] = 10.0 mg/mL, 150 µL in DMSO, 15 mm agar well

## Cc1ccc(S(=O)(=O)NC(=O)Nc2ccc(OC(F)(F)F)cc2)cc1 [Compound 8, 4-Methyl-N-[(4-{trifluoromethoxy}phenyl)carbamoyl]benzenesulfonamide]
A549 [1]
  DNA damaged cells % (mean ± SEM): 24.75 ± 1.03^a %
A549 [1]; of 400 cells analyzed
  Class 0 (no tail), number of cells: 301
  Class 1 (tail length < diameter of nucleus), number of cells: 39
  Class 2 (tail length between 1 and 2 × the diameter of nucleus), number of cells: 38
  Class 3 (tail length > 2 × the diameter of nucleus), number of cells: 22
  No. of cells, Comets: 99
[2]; 100 μg/mL
  mortality at 100 µg/mL: 100%
[2]; MTT
  IC50: 74 ± 0.29 µM
[3]
  mortality at 100 µg/mL: > 50%
Bacillus mycoides [4]; read-out: Inhibition zone
  zone of inhibition at 4.88 µg/mL: 17 mm
  zone of inhibition at 9.75 µg/mL: 17 mm
  zone of inhibition at 19.5 µg/mL: 17 mm
  zone of inhibition at 39.1 µg/mL: 17 mm
  zone of inhibition at 78.1 µg/mL: 17 mm
  zone of inhibition at 156.3 µg/mL: 17 mm
  zone of inhibition at 312.5 µg/mL: 20 mm
  zone of inhibition at 625 µg/mL: 23 mm
  zone of inhibition at 1250 µg/mL: 26 mm
  zone of inhibition at 2500 µg/mL: 27 mm
  zone of inhibition at 5000 µg/mL: 27 mm
  zone of inhibition at 10000 µg/mL: 32 mm
Bacillus mycoides [4]; [13]
  MIC: 4.88 µg/mL (≈ 13 µM)
EGFR
  EGFR gene expression level: significant reduction
Prostate cancer (PC3); 100 μg/mL
  mortality at 100 µg/mL: 100%
Prostate cancer (PC3); MTT
  IC50: 57.2 ± 0.39 µM
Candida albicans [5]; [14]
  zone of inhibition at 4.88 µg/mL: 16 mm
Candida albicans [5]; [15]
  zone of inhibition at 9.75 µg/mL: 17 mm
Candida albicans [5]; [16]
  zone of inhibition at 19.5 µg/mL: 17 mm
Candida albicans [5]; [17]
  zone of inhibition at 39.1 µg/mL: 17 mm
Candida albicans [5]; [18]
  zone of inhibition at 78.1 µg/mL: 18 mm
Candida albicans [5]; [19]
  zone of inhibition at 156.3 µg/mL: 23 mm
Candida albicans [5]; [20]
  zone of inhibition at 312.5 µg/mL: 25 mm
Candida albicans [5]; [21]
  zone of inhibition at 625 µg/mL: 27 mm
Candida albicans [5]; [22]
  zone of inhibition at 1250 µg/mL: 28 mm
Candida albicans [5]; [23]
  zone of inhibition at 2500 µg/mL: 30 mm
Candida albicans [5]; [24]
  zone of inhibition at 5000 µg/mL: 32 mm
Candida albicans [5]; [25]
  zone of inhibition at 10000 µg/mL: 34 mm
Candida albicans [5]; [13]
  MIC: 4.88 µg/mL (≈ 13 µM)
Bacillus mycoides [6]; B. mycoides, 200 μL of 10 mg/mL in DMSO in 15 mm holes, overnight 37 °C
  Inhibition zones diameter: 37 ± 0.23 mm
Bacillus mycoides [6]; Bacillus mycoides, read-out: Inhibition zones diameter
  zone of inhibition at 10000 µg/mL: 37 mm
[7]; A549, 48 h, 100 μg/mL
  mortality at 100 µg/mL: 100%
[7]; MTT, 48 h
  IC50: 55.8 ± 0.11 µM
Candida albicans [8]; C. albicans, 200 μL of 10 mg/mL in DMSO in 15 mm holes, overnight 37 °C
  Inhibition zones diameter: 38 ± 0.67 mm
Candida albicans [8]; Candida albicans, read-out: Inhibition zones diameter
  zone of inhibition at 10000 µg/mL: 38 mm
[9]; 100 μg/mL
  mortality at 100 µg/mL: 100%
[9]; MTT
  IC50: 22.4 ± 0.49 µM
Escherichia coli [10]; [14]
  zone of inhibition at 4.88 µg/mL: 16 mm
Escherichia coli [10]; [15]
  zone of inhibition at 9.75 µg/mL: 17 mm
Escherichia coli [10]; [16]
  zone of inhibition at 19.5 µg/mL: 17 mm
Escherichia coli [10]; [17]
  zone of inhibition at 39.1 µg/mL: 18 mm
Escherichia coli [10]; [18]
  zone of inhibition at 78.1 µg/mL: 18 mm
Escherichia coli [10]; [19]
  zone of inhibition at 156.3 µg/mL: 19 mm
Escherichia coli [10]; [20]
  zone of inhibition at 312.5 µg/mL: 23 mm
Escherichia coli [10]; [21]
  zone of inhibition at 625 µg/mL: 25 mm
Escherichia coli [10]; [22]
  zone of inhibition at 1250 µg/mL: 27 mm
Escherichia coli [10]; [23]
  zone of inhibition at 2500 µg/mL: 28 mm
Escherichia coli [10]; [24]
  zone of inhibition at 5000 µg/mL: 29 mm
Escherichia coli [10]; [25]
  zone of inhibition at 10000 µg/mL: 32 mm
Escherichia coli [10]; [13]
  MIC: 4.88 µg/mL (≈ 13 µM)
Escherichia coli [11]
  zone of inhibition at 10000 µg/mL: 29 ± 0.44 mm
Skin cancer (A431)
  mortality at 100 µg/mL: 27.5 ± 0.64%
A549 [12]
  Change (DNA fragmentation versus untreated cells): 22.8
A549 [12]; IC50 concentration, 24 h
  DNA fragmentation % M ± SEM: 34.2 ± 0.57^a %
A549 [12]; doxorubicin = 0.0
  Inhibition: 16.92
In vitro
  mortality at 48 h, 100 µg/mL: 6.2 ± 1.54%
Colon cancer (HCT116); HCT-116, 48 h, 100 μg/mL
  mortality at 100 µg/mL: 100%
Colon cancer (HCT116); HCT-116, MTT, 48 h
  IC50: 47.3 ± 0.91 µM
KRAS
  KRAS gene expression level: significant reduction
